SMILES strings stand for the structures. ± gives the expanded uncertainty stated by the source.

Data set [1] can be described thus: refractive index (Na D-line) (dimensionless). The settings on record: 298.15 K; 101.33 kPa; Liquid; Standard Abbe refractometry.
For data set [2] the following is noted: 298.15 K; 101.33 kPa; Liquid; Vibrating tube method.

In the case of `CO` [methanol], the refractive index (in general, a measure of how strongly the sample bends light) in data set [1] was determined as 1.3281 ± 0.0041. The mass density – broadly, the mass of a sample divided by its volume – in data set [2] turned out to be 791 ± 6 kg/m3.

For `O` [water], the refractive index in data set [1] was 1.3324 ± 0.0041.

With `CC(C)OC(C)C` [diisopropyl ether], the refractive index in data set [1] was 1.3674 ± 0.004. The mass density in data set [2] was found to be 723.8 ± 6 kg/m3.

For `CCCC(=O)O` [butanoic acid], the refractive index in data set [1] is recorded as 1.3981 ± 0.0041. In addition, the mass density in data set [2] is listed as 952.1 ± 6 kg/m3.

Regarding `CC(C)C(=O)O` [2-methylpropanoic acid], the refractive index in data set [1] is listed as 1.3899 ± 0.0041. For the same compound, in data set [2], the mass density was determined as 941.63 ± 6 kg/m3.

For `CCCCO` [butan-1-ol], in data set [1], the refractive index is reported as 1.3941 ± 0.0041. Besides, the mass density in data set [2] amounted to 807.96 ± 6 kg/m3.
